What all share (format): cell-based, mouse
The test system of assay [1] is Hedgehog Signaling Pathway. Briefly: SHH-induced differentiation of C3H10T1/2 cells into osteoblastic cells, intracellular alkaline phosphatase activity. The settings on record: Mus musculus, C3H 10T1/2, 120 h, 10 nM SHH-N, 5 days, alkaline phosphatase activity (OD405), read-out: IC50 values of compounds that inhibit Hh pathway. An outline of the steps: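 Mouse C3H10T1/2 cells were induced with 10 nM SHH-N alongside test compound (10 μM–10 nM) for 5 days at 37 °C. Cells were lysed in 0.2% Triton, and alkaline phosphatase activity was read at OD405 over 30 min at 37 °C with the background reading subtracted. IC50 came from a nonlinear fit against log concentration.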

The subject of assay [2] is Hedgehog Signaling Pathway. The assay can be described thus: SAG-induced differentiation of C3H10T1/2 cells into osteoblastic cells, intracellular alkaline phosphatase activity. Conditions: Mus musculus, C3H 10T1/2, 120 h, 1 μM SAG, 5 days, alkaline phosphatase activity (OD405), read-out: IC50 values of compounds that inhibit Hh pathway. In a few lines:
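Mouse C3H10T1/2 cells were induced with SAG and exposed to compound (10 μM to 1 nM) for 5 days at 37 °C. Cells were lysed in 0.2% Triton, and alkaline phosphatase activity was read as OD405 over 30 min at 37 °C in pH 9.8 substrate buffer. IC50 came from a non-linear fit of background-subtracted OD405 against log concentration.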

Assay [3] relates to Hedgehog Signaling Pathway. Briefly: Gli-Luc reporter gene cell assay in C3H10T1/2/Gli-Luc cells stimulated with Shh. Conditions: Mus musculus, C3H 10T1/2, 24 h, 30 nM Shh, luciferase activity (RLU), read-out: IC50 values of compounds that inhibit Hh pathway. The source says: The Application of Reporter Gene Cell Assay for the Determination of the Inhibitory Activity of N-(3-(1H-benzo[d]imidazol-2-yl)-4-chlorophenyl)-2-methyl-4-((2S,6R)-2,6-dimethylmorpholino) benzamide and Analogs on Hedgehog Signaling Pathway
The binding of Sonic hedgehog (Shh) to its receptor Patched 1 initiates numerous intracellular signal transmission, and leads to the nuclear translocation of Gli and the elevated transcription of Gli target genes. When C3H10T1/2 cells are stably transfected with the Gli-Luc plasmids containing the luciferase gene under the control of Gli response element and stimulated with Shh, the expression of luciferase is elevated. Luciferase activity is indicative of the hedgehog signaling pathway activity. Therefore, the inhibitory activity of compounds on hedgehog signaling pathway can be measured using the luciferase activity when the transfected cells are stimulated with Shh.
The day before experiment, C3H10T1/2/Gli-Luc cells in log phase of growth were seeded into 96 well plate at a density of 20000 cells per well. The cells were maintained in DMEM (Hyclone) supplemented with 10% FBS (Hyclone) and incubated at 37° C. with 5% CO2 overnight. The compounds to be examined were diluted into 7 different concentrations by series of dilutions (⅓ and 1/10), and the eighth point of concentration is the DMSO control. Those solutions were diluted 100-fold in the fresh growth medium. The cells were taken out of the incubator and the medium of cultured cells were removed. Then, each well was added in an orderly manner with 80 μL of fresh growth medium, 20 μL of medium pre-dilution of positive compound and compounds to be tested, as well as 100 μL of growth medium containing 30 nM of Shh. The cells are returned to the incubator, and incubated for 24 hours.
Measurement of luciferase activity: After taking the 96 well plate out of the incubator, the supernatants were discarded and the cells were washed twice with PBS. Thereafter, each well was dispensed with 20 μL of lysis buffer (Promega E1531), and the plate was shaken for 30 min at room temperature. Following transferring 5 μL of cell lysate into 384 well plate (Greiner 781074), adding 25 μL of luciferase reaction buffer (Promega E1501) into each well and mixing the plate, the relative light unit (RLU) was immediately captured by VarioSkan Flash.
The data were analyzed with Prism 5 software (GraphPad). The relative light unit (RLU) was plotted against the log concentration of testing compound, and the obtained plot was fitted with non-linear curve fitting equation to calculate IC50 values. The curve fitting equation is Y (RLU)=Bottom+(Top−Bottom)/(1+10^((X−Log IC50))). X is the logarithm of concentration. Y is the measure of relative light unit (RLU).
The calculated IC50 value is a measurement of the inhibitory activity of compound to Hh pathway.

A word on the IC50: it is the concentration needed to halve the response being measured. With `C[C@@H]1CN(c2ccc(C(=O)Nc3ccc(Cl)c(-c4nc5ccccc5[nH]4)c3)cn2)C[C@H](C)O1` [Example 35, N-(3-(1H-benzo[d]imidazol-2-yl)-4-chlorophenyl)-6-((2S,6R)-2,6-dimethylmorpholino)nicotinamide], the results for the 50% inhibitory concentration (IC50) in assay [1], in assay [2] and in assay [3] were 10 nM, 56 nM and 7.8 nM, respectively.
For `Cc1nc(N2C[C@@H](C)O[C@@H](C)C2)ccc1C(=O)Nc1ccc(Cl)c(-c2nc3ccccc3[nH]2)c1` [Example 38, N-(3-(1H-benzo[d]imidazol-2-yl)-4-chlorophenyl)-2-methyl-6-((2S,6R)-2,6-dimethylmorpholino)nicotinamide], the 50% inhibitory concentration (IC50) in assay [1] turned out to be 4.9 nM; in assay [2], 28 nM; in assay [3] it was 8.4 nM.
In the case of `COc1ncc(-c2ccc(C(=O)Nc3ccc(Cl)c(-c4nc5ccccc5[nH]4)c3)c(C)c2)cn1` [Example 39, N-(3-(1H-benzo[d]imidazol-2-yl)-4-chlorophenyl)-2-methyl-4-(2-methoxypyrimidin-5-yl)benzamide], the 50% inhibitory concentration (IC50) amounted to 15 nM in assay [1], 40 nM in assay [2] and 8.2 nM in assay [3].
For `Cc1cc(-c2cncnc2)ccc1C(=O)Nc1ccc(Cl)c(-c2nc3ccccc3[nH]2)c1` [Example 43, N-(3-(1H-benzo[d]imidazol-2-yl)-4-chlorophenyl)-2-methyl-4-(pyrimidin-5-yl)benzamide], the IC50 was 8.5 nM in assay [1], 16 nM in assay [2] and 12 nM in assay [3].
Regarding `Cc1cc(-c2ccc(C(F)(F)F)cc2)ccc1C(=O)Nc1ccc(C)c(-c2nc3ccccc3[nH]2)c1` [Example 46, N-(3-(1H-benzo[d]imidazol-2-yl)-4-methylphenyl)-3-methyl-4′-(trifluoromethyl)biphenyl-4-carboxamide], the 50% inhibitory concentration (IC50) in assay [1] is 5.1 nM; in assay [2] it was 89 nM; in assay [3], 5.5 nM.
The corresponding values for `Cc1cc(-c2ccc(C(F)(F)F)cc2)ccc1C(=O)Nc1ccc(Cl)c(-c2nc3ccccc3n2C)c1` [Example 47, N-(3-(1-methyl-1H-benzo[d]imidazol-2-yl)-4-chlorophenyl)-3-methyl-4′-(trifluoromethyl)biphenyl-4-carboxamide] are 3.3 nM, 102 nM and 8.7 nM.
The matching figures for `Cc1cc(-c2ccc(C(F)(F)F)cc2)ccc1C(=O)Nc1ccc(Cl)c(-c2nc3cnccc3[nH]2)c1` [Example 49, N-(3-(1H-imidazo[4,5-c]pyridin-2-yl)-4-chlorophenyl)-3-methyl-4′-(trifluoromethyl)biphenyl-4-carboxamide]: 2.4 nM, 261 nM and 7.2 nM.
For `Cc1cc(-c2ccc(C(F)(F)F)cc2)ccc1C(=O)Nc1ccc(Cl)c(-c2ncc(-c3ccccc3)[nH]2)c1` [Example 50, N-(3-(5-phenyl-1H-imidazol-2-yl)-4-chlorophenyl)-3-methyl-4′-(trifluoromethyl)biphenyl-4-carboxamide], the IC50 in assay [1] worked out at 7.9 nM; in assay [2], 125 nM; in assay [3], 10 nM.
For `Cc1cc(-c2ccc(C(F)(F)F)cc2)ccc1C(=O)Nc1ccc(Cl)c(-c2ccccn2)c1` [Example 59, N-(3-(pyridin-2-yl)-4-chlorophenyl)-3-methyl-4′-(trifluoromethyl)biphenyl-4-carboxamide], the IC50 in assay [1] turned out to be 7.5 nM; in assay [2], 232 nM; in assay [3], 9.1 nM.
Consider `Cc1cc(-c2ccc(C(F)(F)F)cc2)ccc1C(=O)Nc1cncc(-c2nc3ccccc3[nH]2)c1` [Example 60, N-(5-(1H-benzo[d]imidazol-2-yl)pyridin-3-yl)-3-methyl-4′-(trifluoromethyl)biphenyl-4-carboxamide], for which the 50% inhibitory concentration (IC50) came to 18 nM in assay [1], 141 nM in assay [2] and 23 nM in assay [3].
`COc1ccc(-c2ccc(C(=O)Nc3ccc(Cl)c(-c4nc5ccccc5[nH]4)c3)c(C)c2)cn1` [Example 66, N-(3-(1H-benzo[d]imidazol-2-yl)-4-chlorophenyl)-2-methyl-4-(6-methoxypyridin-3-yl)benzamide]: the IC50 in assay [1] is 7.1 nM; in assay [2], 24 nM; in assay [3] it was 6.1 nM.
In the case of `Cc1cc(-c2ccc(C(F)(F)F)cc2)ccc1C(=O)Nc1ccc(Cl)c(-c2ncc(-c3cccs3)[nH]2)c1` [Example 68, N-(3-(5-(thiophen-2-yl)-1H-imidazol-2-yl)-4-chlorophenyl)-3-methyl-4′-(trifluoromethyl)biphenyl-4-carboxamide], the IC50 in assay [1] amounted to 4 nM; in assay [2] it was 69 nM; in assay [3], 9.9 nM.
The corresponding values for `Cc1cc(-c2ccc(C(F)(F)F)cc2)ccc1C(=O)Nc1cnc(Cl)c(-c2nc3ccccc3[nH]2)c1` [Example 69, N-(5-(1H-benzo[d]imidazol-2-yl)-6-chloropyridin-3-yl)-3-methyl-4′-(trifluoromethyl)biphenyl-4-carboxamide] are 0.55 nM, 33 nM and 4.2 nM.
Take `Cc1cc(-c2ccc(C#N)cc2)ccc1C(=O)Nc1cnc(Cl)c(-c2nc3ccccc3[nH]2)c1` [Example 70, N-(5-(1H-benzo[d]imidazol-2-yl)-6-chloropyridin-3-yl)-3-methyl-4′-cyanobiphenyl-4-carboxamide]: the results for the IC50 in assay [1], in assay [2] and in assay [3] were 2.8 nM, 34 nM and 1.7 nM, respectively.
Consider `Cc1cc(-c2ccc(C(F)(F)F)cc2)ccc1C(=O)Nc1cnc(C)c(-c2nc3ccccc3[nH]2)c1` [Example 71, N-(5-(1H-benzo[d]imidazol-2-yl)-6-methylpyridin-3-yl)-3-methyl-4′-(trifluoromethyl)biphenyl-4-carboxamide], for which the half-inhibitory concentration (IC50) was determined as 3.6 nM in assay [1], 181 nM in assay [2] and 7.1 nM in assay [3].
The corresponding values for `Cc1ccc(-c2cnc(-c3cc(NC(=O)c4ccc(-c5ccc(C(F)(F)F)cc5)cc4C)ccc3Cl)[nH]2)cc1` [Example 77, N-(3-(5-p-tolyl-1H-imidazol-2-yl)-4-chlorophenyl)-3-methyl-4′-(trifluoromethyl)biphenyl-4-carboxamide] are 1.9 nM, 139 nM and 7.1 nM.
On to `Cc1cc(-c2ccc(C(F)(F)F)cc2)ccc1C(=O)Nc1ccc(Cl)c(-c2ncc(-c3ccc(F)cc3)[nH]2)c1` [Example 78, N-(3-(5-(4-fluorophenyl)-1H-imidazol-2-yl)-4-chlorophenyl)-3-methyl-4′-(trifluoromethyl)biphenyl-4-carboxamide], for which the IC50 was 4.8 nM in assay [1], 166 nM in assay [2] and 15 nM in assay [3].
Turning to `Cc1cc(-c2ccc(C(F)(F)F)cc2)ccc1C(=O)Nc1ccc(Cl)c(-c2ncc(-c3ccco3)[nH]2)c1` [Example 79, N-(3-(5-(furan-2-yl)-1H-imidazol-2-yl)-4-chlorophenyl)-3-methyl-4′-(trifluoromethyl)biphenyl-4-carboxamide], the concentration for half-maximal inhibition (IC50) in assay [1] came to 2.7 nM; in assay [2], 100 nM; in assay [3], 6.6 nM.
Consider `Cc1ccc(-c2cnc(-c3cc(NC(=O)c4ccc(N5C[C@@H](C)O[C@@H](C)C5)cc4C)ccc3Cl)[nH]2)cc1` [Example 80, N-(3-(5-p-tolyl-1H-imidazol-2-yl)-4-chlorophenyl)-2-methyl-4-((2S,6R)-2,6-dimethylmorpholino)benzamide], for which the IC50 amounted to 2.7 nM in assay [1], 28 nM in assay [2] and 1.8 nM in assay [3].

For the origin of these results see patent US10676468B2, “N-(3-heteroarylaryl)-4-arylarylcarboxamides and analogs as hedgehog pathway inhibitors and use thereof” (IMPACT Therapeutics, Inc., priority 2012, dated 2020).
